Experimental data: ChEMBL document CHEMBL5260810, “Inhibition of bromodomain-containing protein 9 for the prevention of epigenetically-defined drug resistance” (Bioorg Med Chem Lett, 2017)

biological target: Adrenergic receptor alpha-2 (Rattus norvegicus) (UniProt P22086+P19328+P22909); assay: Displacement of [3H]-RX 821002 from rat alpha2 adrenoceptor at 10 uM after 60 mins by scintillation counting analysis relative to control; assay type: protein assay; details: not given

SMILES	Activity
C/C=C/Cn1cc(-c2cc(OC)c(C(=O)N3CCOCC3)cc2OC)c2cc(C)[nH]c2c1=O	-12%
C/C=C/Cn1cc(-c2ccc(C(C)(C)O)cc2OC)c2cc[nH]c2c1=O	-1%

test system: NCI-H1299; assay: Cytotoxicity against human NCI-H1299 cells measured after 8 days; assay type: functional, cell-based; details: NCI-H1299, 192 h

SMILES	IC50
C/C=C/Cn1cc(-c2cc(OC)c(C(=O)N3CCOCC3)cc2OC)c2cc(C)[nH]c2c1=O	2 µM
C/C=C/Cn1cc(-c2ccc(C(C)(C)O)cc2OC)c2cc[nH]c2c1=O	20 µM

test system: SCC-3; assay: Cytotoxicity against human SCC-3 cells measured after 8 days; assay type: functional, cell-based; details: SCC-3, 192 h

SMILES	IC50
C/C=C/Cn1cc(-c2cc(OC)c(C(=O)N3CCOCC3)cc2OC)c2cc(C)[nH]c2c1=O	2 µM
C/C=C/Cn1cc(-c2ccc(C(C)(C)O)cc2OC)c2cc[nH]c2c1=O	20 µM

test system: Hs-578T; assay: Cytotoxicity against human Hs-578T cells measured after 8 days; assay type: functional, cell-based; details: 192 h

SMILES	IC50
C/C=C/Cn1cc(-c2cc(OC)c(C(=O)N3CCOCC3)cc2OC)c2cc(C)[nH]c2c1=O	2 µM
C/C=C/Cn1cc(-c2ccc(C(C)(C)O)cc2OC)c2cc[nH]c2c1=O	20 µM

test system: NCI-H647; assay: Cytotoxicity against human NCI-H647 cells measured after 8 days; assay type: functional, cell-based; details: NCI-H647, 192 h

SMILES	IC50
C/C=C/Cn1cc(-c2cc(OC)c(C(=O)N3CCOCC3)cc2OC)c2cc(C)[nH]c2c1=O	2 µM
C/C=C/Cn1cc(-c2ccc(C(C)(C)O)cc2OC)c2cc[nH]c2c1=O	20 µM

test system: CAMA-1; assay: Cytotoxicity against human CAMA-1 cells measured after 8 days; assay type: functional, cell-based; details: CAMA-1, 192 h

SMILES	IC50
C/C=C/Cn1cc(-c2cc(OC)c(C(=O)N3CCOCC3)cc2OC)c2cc(C)[nH]c2c1=O	2 µM
C/C=C/Cn1cc(-c2ccc(C(C)(C)O)cc2OC)c2cc[nH]c2c1=O	20 µM

biological target: T1, Muscarinic acetylcholine receptor M1 (Homo sapiens) (UniProt P11229); assay: Displacement of [125I]pirenzepine from human recombinant M1 receptor at 10 uM after 60 mins by scintillation counting analysis relative to control; details: not given
T1 sequence (whole entry): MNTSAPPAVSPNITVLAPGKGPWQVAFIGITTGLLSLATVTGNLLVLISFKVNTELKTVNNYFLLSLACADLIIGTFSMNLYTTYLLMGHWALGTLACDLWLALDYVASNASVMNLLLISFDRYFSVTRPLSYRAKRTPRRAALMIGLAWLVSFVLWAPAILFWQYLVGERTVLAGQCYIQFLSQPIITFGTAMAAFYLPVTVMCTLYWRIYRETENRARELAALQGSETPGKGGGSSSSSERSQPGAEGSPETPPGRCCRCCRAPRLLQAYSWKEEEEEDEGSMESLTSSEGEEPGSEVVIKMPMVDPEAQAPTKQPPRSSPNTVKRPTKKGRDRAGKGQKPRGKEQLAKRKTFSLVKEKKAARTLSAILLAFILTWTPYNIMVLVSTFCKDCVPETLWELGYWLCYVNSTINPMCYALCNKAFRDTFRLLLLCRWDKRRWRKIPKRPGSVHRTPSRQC

SMILES	Activity
C/C=C/Cn1cc(-c2cc(OC)c(C(=O)N3CCOCC3)cc2OC)c2cc(C)[nH]c2c1=O	-1%
C/C=C/Cn1cc(-c2ccc(C(C)(C)O)cc2OC)c2cc[nH]c2c1=O	1%

test system: NCI-H2452; assay: Cytotoxicity against human NCI-H2452 cells measured after 8 days; assay type: functional, cell-based; details: NCI-H2452, 192 h

SMILES	IC50
C/C=C/Cn1cc(-c2cc(OC)c(C(=O)N3CCOCC3)cc2OC)c2cc(C)[nH]c2c1=O	2 µM
C/C=C/Cn1cc(-c2ccc(C(C)(C)O)cc2OC)c2cc[nH]c2c1=O	20 µM

biological target: Bromodomain-containing protein 4 (Homo sapiens, UniProt O60885); assay: Displacement of biotinylated small-molecule ligand from recombinant His-tagged BRD4 bromodomain 1 (unknown origin) measured after 10 mins by TR-FRET assay; details: not given

SMILES	IC50
C/C=C/Cn1cc(-c2cc(OC)c(C(=O)N3CCOCC3)cc2OC)c2cc(C)[nH]c2c1=O	> 20 µM
C/C=C/Cn1cc(-c2ccc(C(C)(C)O)cc2OC)c2cc[nH]c2c1=O	5.1 µM

test system: CAL-51; assay: Cytotoxicity against human CAL-51 cells measured after 8 days; assay type: functional, cell-based; details: CAL-51, 192 h

SMILES	IC50
C/C=C/Cn1cc(-c2cc(OC)c(C(=O)N3CCOCC3)cc2OC)c2cc(C)[nH]c2c1=O	2 µM
C/C=C/Cn1cc(-c2ccc(C(C)(C)O)cc2OC)c2cc[nH]c2c1=O	20 µM

test system: HCC1954; assay: Cytotoxicity against human HCC1954 cells measured after 8 days; assay type: functional, cell-based; details: HCC1954, 192 h

SMILES	IC50
C/C=C/Cn1cc(-c2cc(OC)c(C(=O)N3CCOCC3)cc2OC)c2cc(C)[nH]c2c1=O	2 µM
C/C=C/Cn1cc(-c2ccc(C(C)(C)O)cc2OC)c2cc[nH]c2c1=O	20 µM

biological target: Nucleosome-remodeling factor subunit BPTF (Homo sapiens, UniProt Q12830); assay: Binding affinity to human partial length FALZ (S2791 to H2911 residues) expressed in bacterial expression system by BROMOscan assay; details: not given

SMILES	Kd
C/C=C/Cn1cc(-c2cc(OC)c(C(=O)N3CCOCC3)cc2OC)c2cc(C)[nH]c2c1=O	> 10 µM
C/C=C/Cn1cc(-c2ccc(C(C)(C)O)cc2OC)c2cc[nH]c2c1=O	> 10 µM

biological target: Macrophage colony-stimulating factor 1 receptor (Homo sapiens) (UniProt P07333); assay: Inhibition of CSF1R (unknown origin) at 1 uM relative to control; details: not given
Sequence (P07333 whole entry): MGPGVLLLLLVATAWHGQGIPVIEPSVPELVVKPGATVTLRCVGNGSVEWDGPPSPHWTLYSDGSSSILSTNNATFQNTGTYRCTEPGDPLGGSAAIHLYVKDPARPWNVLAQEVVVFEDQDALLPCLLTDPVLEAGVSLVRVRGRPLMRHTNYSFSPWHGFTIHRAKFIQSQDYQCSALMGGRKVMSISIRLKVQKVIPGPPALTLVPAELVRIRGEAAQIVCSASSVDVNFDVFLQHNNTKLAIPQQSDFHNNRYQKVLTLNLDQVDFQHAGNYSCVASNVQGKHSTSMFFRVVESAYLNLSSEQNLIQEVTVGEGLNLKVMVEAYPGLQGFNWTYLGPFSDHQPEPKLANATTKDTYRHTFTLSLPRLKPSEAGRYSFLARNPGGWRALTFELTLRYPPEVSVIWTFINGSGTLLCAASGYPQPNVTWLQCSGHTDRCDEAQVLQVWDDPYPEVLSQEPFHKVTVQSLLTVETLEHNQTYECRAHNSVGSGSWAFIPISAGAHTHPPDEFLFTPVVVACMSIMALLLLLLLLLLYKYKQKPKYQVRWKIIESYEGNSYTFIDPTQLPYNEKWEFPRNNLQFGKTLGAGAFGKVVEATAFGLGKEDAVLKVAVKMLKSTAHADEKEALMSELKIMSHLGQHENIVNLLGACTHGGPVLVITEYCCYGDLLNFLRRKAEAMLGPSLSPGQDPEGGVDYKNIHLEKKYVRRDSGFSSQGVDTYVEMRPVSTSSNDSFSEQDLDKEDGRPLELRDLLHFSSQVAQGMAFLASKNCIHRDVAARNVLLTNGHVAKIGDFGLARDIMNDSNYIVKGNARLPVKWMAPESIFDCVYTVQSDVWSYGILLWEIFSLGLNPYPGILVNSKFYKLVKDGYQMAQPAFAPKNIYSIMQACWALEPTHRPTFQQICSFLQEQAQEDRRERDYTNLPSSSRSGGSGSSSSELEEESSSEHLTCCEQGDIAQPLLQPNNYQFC

SMILES	inhibition
C/C=C/Cn1cc(-c2cc(OC)c(C(=O)N3CCOCC3)cc2OC)c2cc(C)[nH]c2c1=O	6.5%
C/C=C/Cn1cc(-c2ccc(C(C)(C)O)cc2OC)c2cc[nH]c2c1=O	6.5%

biological target: Beta-2 adrenergic receptor (Homo sapiens) (UniProt P07550); assay: Displacement of [3H](-)CGP 12177 from human recombinant beta2 adrenoceptor at 10 uM after 120 mins by scintillation counting analysis relative to control; details: not given
Sequence (P07550 whole entry, looked up): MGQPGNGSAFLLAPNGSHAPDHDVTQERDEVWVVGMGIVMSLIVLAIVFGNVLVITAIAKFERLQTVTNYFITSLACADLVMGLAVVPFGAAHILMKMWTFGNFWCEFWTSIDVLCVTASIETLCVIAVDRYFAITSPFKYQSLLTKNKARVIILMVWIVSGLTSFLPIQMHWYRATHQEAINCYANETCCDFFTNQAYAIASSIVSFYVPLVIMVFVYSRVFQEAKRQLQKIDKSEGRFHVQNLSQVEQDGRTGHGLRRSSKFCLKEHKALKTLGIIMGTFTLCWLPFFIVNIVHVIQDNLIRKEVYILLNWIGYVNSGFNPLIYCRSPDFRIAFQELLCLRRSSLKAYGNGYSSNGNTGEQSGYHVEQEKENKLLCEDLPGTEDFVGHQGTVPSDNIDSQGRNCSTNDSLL

SMILES	Activity
C/C=C/Cn1cc(-c2cc(OC)c(C(=O)N3CCOCC3)cc2OC)c2cc(C)[nH]c2c1=O	-1%
C/C=C/Cn1cc(-c2ccc(C(C)(C)O)cc2OC)c2cc[nH]c2c1=O	5%

biological target: Histone acetyltransferase p300 (Homo sapiens, UniProt Q09472); assay: Binding affinity to human partial length EP300 (A1040 to G1161 residues) expressed in bacterial expression system by BROMOscan assay; details: not given
Sequence (Q09472 whole entry, the tested form may be a part): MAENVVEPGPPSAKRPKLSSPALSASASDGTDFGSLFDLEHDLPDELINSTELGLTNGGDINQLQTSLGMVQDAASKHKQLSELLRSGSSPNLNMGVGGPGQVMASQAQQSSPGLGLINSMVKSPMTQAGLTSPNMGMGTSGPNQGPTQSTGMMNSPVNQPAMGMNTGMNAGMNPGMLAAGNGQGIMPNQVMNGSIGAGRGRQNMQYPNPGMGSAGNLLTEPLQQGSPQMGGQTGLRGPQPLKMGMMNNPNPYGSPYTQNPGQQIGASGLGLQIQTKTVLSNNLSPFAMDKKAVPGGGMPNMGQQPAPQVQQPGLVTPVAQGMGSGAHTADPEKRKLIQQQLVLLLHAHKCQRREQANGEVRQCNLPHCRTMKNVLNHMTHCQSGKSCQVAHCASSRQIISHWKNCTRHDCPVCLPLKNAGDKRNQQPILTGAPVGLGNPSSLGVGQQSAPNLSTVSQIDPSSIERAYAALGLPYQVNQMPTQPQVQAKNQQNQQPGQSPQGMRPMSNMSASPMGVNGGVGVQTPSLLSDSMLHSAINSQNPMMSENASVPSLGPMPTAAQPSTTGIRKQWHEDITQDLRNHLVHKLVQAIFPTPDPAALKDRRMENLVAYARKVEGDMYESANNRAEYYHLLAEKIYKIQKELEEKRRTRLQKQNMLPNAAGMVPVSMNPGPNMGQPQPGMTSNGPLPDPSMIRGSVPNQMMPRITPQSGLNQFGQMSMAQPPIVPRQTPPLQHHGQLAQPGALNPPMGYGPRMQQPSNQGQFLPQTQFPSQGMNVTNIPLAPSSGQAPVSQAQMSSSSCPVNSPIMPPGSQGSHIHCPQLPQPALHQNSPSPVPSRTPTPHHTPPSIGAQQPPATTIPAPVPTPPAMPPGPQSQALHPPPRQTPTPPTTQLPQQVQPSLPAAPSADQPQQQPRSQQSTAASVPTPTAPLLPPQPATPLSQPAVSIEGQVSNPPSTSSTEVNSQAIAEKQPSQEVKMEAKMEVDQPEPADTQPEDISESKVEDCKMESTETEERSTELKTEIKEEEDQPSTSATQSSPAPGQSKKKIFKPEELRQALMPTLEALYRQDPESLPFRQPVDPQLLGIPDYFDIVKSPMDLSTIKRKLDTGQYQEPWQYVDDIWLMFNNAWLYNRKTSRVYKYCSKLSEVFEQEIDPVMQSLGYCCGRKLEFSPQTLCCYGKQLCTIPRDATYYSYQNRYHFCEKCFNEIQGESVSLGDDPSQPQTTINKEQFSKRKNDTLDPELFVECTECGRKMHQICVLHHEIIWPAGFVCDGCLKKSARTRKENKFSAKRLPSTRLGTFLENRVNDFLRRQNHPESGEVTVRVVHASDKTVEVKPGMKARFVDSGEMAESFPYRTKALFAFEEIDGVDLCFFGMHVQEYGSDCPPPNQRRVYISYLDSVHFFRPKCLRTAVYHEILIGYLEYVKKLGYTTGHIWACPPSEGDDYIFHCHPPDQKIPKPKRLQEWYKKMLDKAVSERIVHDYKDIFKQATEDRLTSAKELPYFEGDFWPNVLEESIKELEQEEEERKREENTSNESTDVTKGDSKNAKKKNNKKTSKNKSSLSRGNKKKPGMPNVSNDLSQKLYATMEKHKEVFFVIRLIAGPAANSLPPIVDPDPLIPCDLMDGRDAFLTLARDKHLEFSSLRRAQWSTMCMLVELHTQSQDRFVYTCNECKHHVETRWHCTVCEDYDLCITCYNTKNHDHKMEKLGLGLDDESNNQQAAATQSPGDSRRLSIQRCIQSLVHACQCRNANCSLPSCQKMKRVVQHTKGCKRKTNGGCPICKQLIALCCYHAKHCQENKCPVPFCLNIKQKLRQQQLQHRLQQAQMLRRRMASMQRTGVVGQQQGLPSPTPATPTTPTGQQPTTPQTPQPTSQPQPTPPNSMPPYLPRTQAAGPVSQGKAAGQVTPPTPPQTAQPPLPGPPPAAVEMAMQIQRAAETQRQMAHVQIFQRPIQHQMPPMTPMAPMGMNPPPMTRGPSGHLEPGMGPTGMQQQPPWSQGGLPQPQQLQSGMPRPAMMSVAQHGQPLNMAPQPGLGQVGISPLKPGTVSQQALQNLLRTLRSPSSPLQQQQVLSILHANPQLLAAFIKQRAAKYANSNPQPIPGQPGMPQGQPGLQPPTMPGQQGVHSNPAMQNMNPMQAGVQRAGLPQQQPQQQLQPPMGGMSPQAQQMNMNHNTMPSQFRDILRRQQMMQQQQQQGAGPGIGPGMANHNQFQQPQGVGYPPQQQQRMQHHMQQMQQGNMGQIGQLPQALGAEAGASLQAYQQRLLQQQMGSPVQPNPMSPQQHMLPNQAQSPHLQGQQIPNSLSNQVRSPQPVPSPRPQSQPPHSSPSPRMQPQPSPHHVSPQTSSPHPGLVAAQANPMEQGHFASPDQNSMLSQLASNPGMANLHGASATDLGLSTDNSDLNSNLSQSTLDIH

SMILES	Kd
C/C=C/Cn1cc(-c2cc(OC)c(C(=O)N3CCOCC3)cc2OC)c2cc(C)[nH]c2c1=O	> 10 µM
C/C=C/Cn1cc(-c2ccc(C(C)(C)O)cc2OC)c2cc[nH]c2c1=O	4.5 µM

test system: not listed separately; assay: Cytotoxicity against human MDST8 cells measured after 8 days; assay type: functional, cell-based; details: MDST8, 192 h

SMILES	IC50
C/C=C/Cn1cc(-c2cc(OC)c(C(=O)N3CCOCC3)cc2OC)c2cc(C)[nH]c2c1=O	2 µM
C/C=C/Cn1cc(-c2ccc(C(C)(C)O)cc2OC)c2cc[nH]c2c1=O	20 µM

test system: MEL-HO; assay: Cytotoxicity against human MEL-HO cells measured after 8 days; assay type: functional, cell-based; details: 192 h

SMILES	IC50
C/C=C/Cn1cc(-c2cc(OC)c(C(=O)N3CCOCC3)cc2OC)c2cc(C)[nH]c2c1=O	2 µM
C/C=C/Cn1cc(-c2ccc(C(C)(C)O)cc2OC)c2cc[nH]c2c1=O	16.5 µM

biological target: Bromodomain testis-specific protein (Homo sapiens, UniProt Q58F21); assay: Binding affinity to BRDT bromodomain 1/2 (unknown origin) by BROMOscan assay; details: not given

SMILES	Kd
C/C=C/Cn1cc(-c2cc(OC)c(C(=O)N3CCOCC3)cc2OC)c2cc(C)[nH]c2c1=O	> 10 µM
C/C=C/Cn1cc(-c2ccc(C(C)(C)O)cc2OC)c2cc[nH]c2c1=O	1.2 µM

test system: HCT-116; assay: Cytotoxicity against human HCT-116 cells measured after 8 days; assay type: functional, cell-based; details: HCT-116, 192 h

SMILES	IC50
C/C=C/Cn1cc(-c2cc(OC)c(C(=O)N3CCOCC3)cc2OC)c2cc(C)[nH]c2c1=O	2 µM
C/C=C/Cn1cc(-c2ccc(C(C)(C)O)cc2OC)c2cc[nH]c2c1=O	20 µM

biological target: T2, Bromodomain and PHD finger-containing protein 3 (Homo sapiens, UniProt Q9ULD4); assay: Binding affinity to human partial length BRPF3 (E588 to G701 residues) expressed in bacterial expression system by BROMOscan assay; details: not given
T2 sequence (Q9ULD4 whole entry): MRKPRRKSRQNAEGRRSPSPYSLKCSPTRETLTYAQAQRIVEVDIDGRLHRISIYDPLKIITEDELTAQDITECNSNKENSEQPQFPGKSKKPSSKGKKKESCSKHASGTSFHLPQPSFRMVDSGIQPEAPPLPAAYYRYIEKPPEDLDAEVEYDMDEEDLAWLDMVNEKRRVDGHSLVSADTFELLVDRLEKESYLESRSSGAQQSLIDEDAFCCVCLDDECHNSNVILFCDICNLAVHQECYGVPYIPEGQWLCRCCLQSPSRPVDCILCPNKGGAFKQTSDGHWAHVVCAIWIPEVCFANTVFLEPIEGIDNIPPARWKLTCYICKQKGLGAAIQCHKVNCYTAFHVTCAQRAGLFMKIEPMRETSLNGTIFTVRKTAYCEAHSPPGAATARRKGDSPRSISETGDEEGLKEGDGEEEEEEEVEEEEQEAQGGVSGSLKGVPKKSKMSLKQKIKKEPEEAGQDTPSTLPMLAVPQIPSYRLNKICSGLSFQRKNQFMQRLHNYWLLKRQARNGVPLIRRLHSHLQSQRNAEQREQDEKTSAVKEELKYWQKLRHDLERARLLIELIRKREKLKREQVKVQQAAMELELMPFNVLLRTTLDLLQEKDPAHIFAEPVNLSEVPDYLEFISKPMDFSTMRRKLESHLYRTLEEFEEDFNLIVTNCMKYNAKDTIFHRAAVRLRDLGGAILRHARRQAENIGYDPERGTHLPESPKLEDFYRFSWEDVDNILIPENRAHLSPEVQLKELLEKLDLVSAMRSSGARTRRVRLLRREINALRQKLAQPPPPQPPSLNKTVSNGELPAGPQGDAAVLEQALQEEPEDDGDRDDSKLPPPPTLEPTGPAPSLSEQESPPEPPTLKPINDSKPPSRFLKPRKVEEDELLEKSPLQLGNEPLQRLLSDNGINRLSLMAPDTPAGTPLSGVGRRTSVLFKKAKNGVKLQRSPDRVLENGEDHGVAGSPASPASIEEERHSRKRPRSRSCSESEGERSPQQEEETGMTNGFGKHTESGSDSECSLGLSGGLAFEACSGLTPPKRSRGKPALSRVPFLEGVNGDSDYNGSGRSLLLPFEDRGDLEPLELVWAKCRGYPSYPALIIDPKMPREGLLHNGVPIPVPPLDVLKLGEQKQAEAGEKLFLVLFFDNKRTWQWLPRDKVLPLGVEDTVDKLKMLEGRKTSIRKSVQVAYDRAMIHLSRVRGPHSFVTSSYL

SMILES	Kd
C/C=C/Cn1cc(-c2cc(OC)c(C(=O)N3CCOCC3)cc2OC)c2cc(C)[nH]c2c1=O	> 10 µM
C/C=C/Cn1cc(-c2ccc(C(C)(C)O)cc2OC)c2cc[nH]c2c1=O	> 10 µM

test system: not listed separately; assay: Cytotoxicity against human EB1 cells measured after 8 days; assay type: functional, cell-based; details: EB1, 192 h

SMILES	IC50
C/C=C/Cn1cc(-c2cc(OC)c(C(=O)N3CCOCC3)cc2OC)c2cc(C)[nH]c2c1=O	2 µM
C/C=C/Cn1cc(-c2ccc(C(C)(C)O)cc2OC)c2cc[nH]c2c1=O	20 µM

test system: COLO-678; assay: Cytotoxicity against human COLO-678 cells measured after 8 days; assay type: functional, cell-based; details: COLO-678, 192 h

SMILES	IC50
C/C=C/Cn1cc(-c2cc(OC)c(C(=O)N3CCOCC3)cc2OC)c2cc(C)[nH]c2c1=O	2 µM
C/C=C/Cn1cc(-c2ccc(C(C)(C)O)cc2OC)c2cc[nH]c2c1=O	20 µM
